According to patent publication US8303964B2, “Viable non-toxic gram-negative bacteria” (priority 2006, dated 2012):
Converted amounts (≈) assume the structure as drawn. Like-named read-outs stand apart in the source and are kept apart here. Bridge positions count the residues as written; N and C are the ends. Square brackets hold non-standard residues; d marks the D form. Peptide text beside a SMILES is read from it. * marks the point of attachment. Ileψ(thiazoline)Cys = CC[C@H](C)[C@H](N)C1=N[C@H](C(=O)*)CS1; dOrn = NCCC[C@@H](N)C(=O)O

Tests used:
kdsD = kdsD (Escherichia coli, UniProt P45395); settings: cited from earlier work; for kcat / Km: kdsD; for kcat: A5P to Ru5P or Ru5P to A5P, labelled by substrate
KPM22 = test: microbe, parasite or virus in culture; format: cell-based, E. coli; settings: for MIC: Escherichia coli, read-out: Minimum Inhibitory Concentration KPM22
Method: (§1) The antibiotics used were from Sigma with the exception of cephaloridine, which was obtained from MicroSource Discovery Systems. Antibiotics were chosen based on their varying mode of action and entry into the cell. […] Colonies from LB agar plate were scraped and suspended in media (˜10^4 cells per mL) with varying concentrations of antibiotics. Cultures were incubated with shaking (˜200 rpm) at 37° C. for 18 hours at which point growth was scored by visual inspection.

BW30270 = test: microbe, parasite or virus in culture; format: cell-based, E. coli K-12; settings: LB media, 37° C., 18 hours, lowest concentration that completely inhibited growth; for MIC: Escherichia coli, read-out: Minimum Inhibitory Concentration BW30270
Method: as §1

gutQ = gutQ (Escherichia coli, UniProt P17115); settings: for alternate substrate, product appearance: determined by 31P-NMR
Method: This example describes enzyme assays used in experiments conducted during the course of the present invention. […] All plates contained internal Ru5P standards and appropriate A5P controls in triplicate. One unit of enzyme activity is defined as the conversion of 1 μmol of sugar phosphate per minute at 37° C.
This example describes the characterization of gutQ. […] After 10 minutes at 37° C., reactions containing the potential alternate substrates D-arabinose, D-ribose 5-phosphate, D-glucose 6-phosphate (G6P), D-glucose 1-phosphate, D-glucosamine 6-phosphate, or D-mannose 6-phosphate were quenched and the presence of ketose was determined. Product appearance for D/L-glyceraldehyde 3-phosphate, D-erythrose 4-phosphate, and D-fructose 6-phosphate was assayed by ^31P NMR. Kinetic constants were determined at 37° C. using the discontinuous microplate assay and were initiated by the addition of substrate. Concentrations typically ranged from 0.2Km to 10Km. […] Initial rates (v0) were determined in triplicate and fit to the standard Michaelis-Menten equation using nonlinear least-squares regression to determine Km and kcat values for both the formation and disappearance of Ru5P.

[1] = substrate: O=C(CO)[C@H](O)[C@H](O)COP(=O)(O)O; test: purified protein, by the assay type; settings: other: gutQ, 37° C., pH 8.25
[2] = substrate: O=C[C@@H](O)[C@H](O)[C@H](O)COP(=O)(O)O; test: purified protein, by the assay type; settings: other: gutQ, 37° C., pH 8.25
[3] = LB media, 37° C., 18 hours, lowest concentration that completely inhibited growth

Chain of kdsD (P45395 whole entry): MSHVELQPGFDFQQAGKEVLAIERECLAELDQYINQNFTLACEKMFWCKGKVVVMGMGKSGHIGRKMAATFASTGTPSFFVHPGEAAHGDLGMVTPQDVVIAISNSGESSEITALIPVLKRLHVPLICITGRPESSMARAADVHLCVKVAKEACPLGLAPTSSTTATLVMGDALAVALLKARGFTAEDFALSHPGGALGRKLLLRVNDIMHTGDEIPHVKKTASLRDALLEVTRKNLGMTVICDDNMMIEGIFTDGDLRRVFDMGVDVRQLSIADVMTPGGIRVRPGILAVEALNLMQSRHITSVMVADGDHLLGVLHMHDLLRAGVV

O=C[C@@H](O)[C@H](O)[C@H](O)COP(=O)(O)O [A5P, d-arabinose 5-phosphate]
kcat (kdsD): 157 ± 4 s⁻¹
Km (kdsD): 610 ± 60 µM

CC1(C)S[C@@H]2[C@H](NC(=O)[C@H](N)c3ccccc3)C(=O)N2[C@H]1C(=O)O [Ampicillin]
Fold Difference in MIC (KPM22): 2 fold
MIC (KPM22; 18 h): 2 µg/mL (≈ 5.72 µM)
MIC (BW30270): 4 µg/mL (≈ 11.4 µM)

CC[C@H](C)[C@H](N)C1=N[C@H](C(=O)N[C@@H](CC(C)C)C(=O)N[C@H](CCC(=O)O)C(=O)N[C@H](C(=O)N[C@H]2CCCCNC(=O)[C@H](CC(N)=O)NC(=O)[C@@H](CC(=O)O)NC(=O)[C@H](Cc3cnc[nH]3)NC(=O)[C@@H](Cc3ccccc3)NC(=O)[C@H]([C@@H](C)CC)NC(=O)[C@@H](CCCN)NC2=O)[C@@H](C)CC)CS1 [Bacitracin] ({Ileψ(thiazoline)Cys}-L[dE]IK[dOrn]I[dF]H[dD]N; lactam 4-C)
Minimum Inhibitory Concentration KPM22 (KPM22; [3]): 512 µg/mL
Fold Difference in MIC (KPM22; MIC BW30270 versus MIC KPM22): 8 fold
Minimum Inhibitory Concentration BW30270 (BW30270): 4096 µg/mL

O=C(Cc1cccs1)N[C@@H]1C(=O)N2C(C(=O)[O-])=C(C[n+]3ccccc3)CS[C@H]12 [Cephaloridine]
MIC (KPM22; [3]): 4 µg/mL (≈ 9.63 µM)
Fold Difference in MIC (KPM22; MIC BW30270 versus MIC KPM22): 1 fold
MIC (BW30270): 4 µg/mL (≈ 9.63 µM)

O=C(N[C@H](CO)[C@H](O)c1ccc([N+](=O)[O-])cc1)C(Cl)Cl [Chloramphenicol]
MIC (KPM22; [3]): 2 µg/mL (≈ 6.19 µM)
MIC (BW30270): 8 µg/mL (≈ 24.8 µM)

O=C[C@H](O)[C@H](O)COP(=O)(O)O [D-erythrose 4-phosphate]
alternate substrate, product appearance (gutQ): served as alternate substrates

O=C(CO)[C@@H](O)[C@H](O)[C@H](O)COP(=O)(O)O [D-fructose 6-phosphate]
alternate substrate, product appearance (gutQ): served as alternate substrates

O=CC(O)COP(=O)(O)O [D/L-glyceraldehyde 3-phosphate]
alternate substrate, product appearance (gutQ): served as alternate substrates

O=C(O)CN(CCN(CC(=O)O)CC(=O)O)CC(=O)O [EDTA]
Activation by EDTA (gutQ): Yes
Activation by EDTA (kdsD): Yes

CC[C@H]1OC(=O)[C@H](C)[C@@H](O[C@H]2C[C@@](C)(OC)[C@@H](O)[C@H](C)O2)[C@H](C)[C@@H](O[C@@H]2O[C@H](C)C[C@H](N(C)C)[C@H]2O)[C@](C)(O)C[C@@H](C)C(=O)[C@H](C)[C@@H](O)[C@]1(C)O [Erythromycin]
MIC (KPM22; [3]): 1 µg/mL (≈ 1.36 µM)

CC(=O)O[C@H]1C[C@@]2(C)[C@@H](C[C@@H](O)[C@H]3[C@@]4(C)CC[C@@H](O)[C@@H](C)[C@@H]4CC[C@@]32C)/C1=C(\CCC=C(C)C)C(=O)O [Fusidic Acid]
MIC (KPM22; [3]): 2 µg/mL (≈ 3.87 µM)
Fold Difference in MIC (KPM22; MIC BW30270 versus MIC KPM22): 256 fold
MIC (BW30270): 512 µg/mL (≈ 991 µM)

NC[C@H]1O[C@H](O[C@H]2[C@H](O)[C@@H](O[C@H]3O[C@H](CO)[C@@H](O)[C@H](N)[C@H]3O)[C@H](N)C[C@@H]2N)[C@H](O)[C@@H](O)[C@@H]1O [Kanamycin]
MIC (KPM22; [3]): 1 µg/mL (≈ 2.06 µM)
Fold Difference in MIC (KPM22; MIC BW30270 versus MIC KPM22): 16 fold
MIC (BW30270): 16 µg/mL (≈ 33 µM)

CO[C@@H]1[C@@H](OC(N)=O)[C@@H](O)[C@H](Oc2ccc3c(O)c(NC(=O)c4ccc(O)c(CC=C(C)C)c4)c(=O)oc3c2C)OC1(C)C [Novobiocin]
MIC (KPM22; [3]): 1 µg/mL (≈ 1.63 µM)

CO[C@H]1/C=C/O[C@@]2(C)Oc3c(C)c(O)c4c(O)c(c(/C=N/N5CCN(C)CC5)c(O)c4c3C2=O)NC(=O)/C(C)=C\C=C\[C@H](C)[C@H](O)[C@@H](C)[C@@H](O)[C@@H](C)[C@H](OC(C)=O)[C@@H]1C [Rifampin]
MIC (BW30270): 16 µg/mL (≈ 19.4 µM)

O=C(CO)[C@H](O)[C@H](O)COP(=O)(O)O [Ru5P, D-ribulose 5-phosphate]
kcat (kdsD): 255 ± 16 s⁻¹
Km (kdsD): 350 ± 80 µM

CCCCCCCCCCCCOS(=O)(=O)[O-].[Na+] [Sodium dodecyl sulfate (SDS), Sodium dodecyl sulfate]
MIC (KPM22; [3]): 8 µg/mL
Fold Difference in MIC (KPM22; MIC BW30270 versus MIC KPM22, listed as sodium dodecyl sulfate, sulfate): > 4000 fold
Fold Difference in MIC (KPM22; MIC BW30270 versus MIC KPM22, sulfate): >4000 fold
MIC (BW30270): > 32000 µg/mL

CN[C@H](CC(C)C)C(=O)N[C@H]1C(=O)N[C@@H](CC(N)=O)C(=O)N[C@H]2C(=O)N[C@H]3C(=O)N[C@H](C(=O)N[C@H](C(=O)O)c4cc(O)cc(O)c4-c4cc3ccc4O)[C@H](O)c3ccc(c(Cl)c3)Oc3cc2cc(c3O[C@@H]2O[C@H](CO)[C@@H](O)[C@H](O)[C@H]2O[C@H]2C[C@](C)(N)[C@H](O)[C@H](C)O2)Oc2ccc(cc2Cl)[C@H]1O [Vancomycin]
MIC (KPM22; [3]): 32 µg/mL (≈ 22.1 µM)
MIC (BW30270): 256 µg/mL (≈ 177 µM)

[Zn+2] [Zn^2+]
Inhibition by 10 μM Zn^2+ (gutQ): Yes
Inhibition by 10 μM Zn^2+ (kdsD): Yes

Polymyxin E
Minimum Inhibitory Concentration KPM22 (KPM22; [3]): 0.06 µg/mL
Fold Difference in MIC (KPM22; MIC BW30270 versus MIC KPM22): ~4 fold
Minimum Inhibitory Concentration BW30270 (BW30270): 0.25 µg/mL

B1: gutQ (Escherichia coli K-12) (protein)
chain: MSEALLNAGRQTLMLELQEASRLPERLGDDFVRAANIILHCEGKVVVSGIGKSGHIGKKIAATLASTGTPAFFVHPAEALHGDLGMIESRDVMLFISYSGGAKELDLIIPRLEDKSIALLAMTGKPTSPLGLAAKAVLDISVEREACPMHLAPTSSTVNTLMMGDALAMAVMQARGFNEEDFARSHPAGALGARLLNKVHHLMRRDDAIPQVALTASVMDAMLELSRTGLGLVAVCDAQQQVQGVFTDGDLRRWLVGGGALTTPVNEAMTVGGTTLQSQSRAIDAKEILMKRKITAAPVVDENGKLTGAINLQDFYQAGII
Km [1]: 640 ± 80 µM
kcat [1]: 242 ± 11 s⁻¹
Km [2]: 1200 ± 100 µM
kcat [2]: 218 ± 4 s⁻¹
